{"source": "patent US6498139B1", "about": "“Remedies for diseases caused by insulin resistance” (Daiichi Pharmaceutical Co., Ltd., priority 1997, dated 2002)", "tested_on": "14-3-3 protein binding to IRS-1", "experiment": "Amount of 14-3-3 protein binding to IRS-1 in HepG2 hepatoma cells overexpressing IRS-1", "format": "cell-based", "details": "IRS-1 overexpressed by adenovirus expression system"}
{"compound": "C=C1[C@@H](O)[C@@H]2O[C@]3(CC[C@H](/C=C/[C@@H](C)[C@@H]4CC(C)=C[C@@]5(O[C@H](C[C@@](C)(O)C(=O)O)CC[C@H]5O)O4)O3)CC[C@H]2O[C@@H]1[C@@H](O)C[C@H](C)[C@H]1O[C@@]2(CCCCO2)CC[C@H]1C", "note": "[okadaic acid]", "values": [{"measurement": "amount of 14-3-3 protein binding to IRS-1", "value": "significantly increased"}]}
{"compound": "insulin", "values": [{"measurement": "amount of 14-3-3 protein binding to IRS-1", "value": "not changed"}]}
